Test results taken from the kinase profiling compilation of Christmann-Franck et al. (2016).
Where “and” joins values, the source holds several entries; their conditions need not be identical. Equal values may be shown once.

What was measured:
Test in all cases: radiometric filter-binding kinase assay, Kinase HotSpot
Conditions in all cases: compound 0.5 µM; ATP 10 µM
[1] = target: SRPK2 (human) (UniProt P78362)
[2] = target: SGK2 (human) (UniProt Q9HBY8)
[3] = target: PRKCA (human) (UniProt P17252)
[4] = target: MST4 (human) (UniProt Q9P289)
[5] = target: STK17A (human) (UniProt Q9UEE5)
[6] = target: CDK9 CCNK (human) (UniProt O75909+P50750)
[7] = target: DYRK1B (human) (UniProt Q9Y463)
[8] = target: CAMK2G (human) (UniProt Q13555)
[9] = target: EPHA1 (human) (UniProt P21709)
[10] = target: NEK7 (human) (UniProt Q8TDX7)
[11] = target: GRK7 (human) (UniProt Q8WTQ7)
[12] = target: JAK3 JH1 JH2 (human) (UniProt P52333)
[13] = target: ROS1 (human) (UniProt P08922)
[14] = target: HIPK2 (human) (UniProt Q9H2X6)
[15] = target: FLT1 (human) (UniProt P17948)
[16] = target: DAPK1 (human) (UniProt P53355)
[17] = target: ACVRL1 (human) (UniProt P37023)
[18] = target: MYLK (human) (UniProt Q15746)
[19] = target: CSF1R (human) (UniProt P07333)
[20] = target: DDR2 (human) (UniProt Q16832)
[21] = target: RPS6KB2 (human) (UniProt Q9UBS0)
[22] = target: MARK2 (human) (UniProt Q7KZI7)
[23] = target: JAK2 JH1 JH2 (human) (UniProt O60674)
[24] = target: ABL1 (human) (UniProt P00519)
[25] = target: CSNK1D (human) (UniProt P48730)
[26] = target: CDC42BPB (human) (UniProt Q9Y5S2)
[27] = target: PRKG1 (human) (UniProt Q13976)
[28] = target: RAF1 (human) (UniProt P04049)
[29] = target: LYN (human) (UniProt P07948)
[30] = target: TXK (human) (UniProt P42681)
[31] = target: PRKD3 (human) (UniProt O94806)
[32] = target: STK4 (human) (UniProt Q13043)
[33] = target: IRAK4 (human) (UniProt Q9NWZ3)
[34] = target: AURKC (human) (UniProt Q9UQB9)
[35] = target: PLK1 (human) (UniProt P53350)
[36] = target: PHKG2 (human) (UniProt P15735)
[37] = target: RIPK2 (human) (UniProt O43353)
[38] = target: TAOK1 (human) (UniProt Q7L7X3)
[39] = target: STK10 (human) (UniProt O94804)
[40] = target: DYRK2 (human) (UniProt Q92630)
[41] = target: TBK1 (human) (UniProt Q9UHD2)
[42] = target: CSNK2A1 (human) (UniProt P68400)

Chain of LYN (human) (P07948 whole entry, looked up): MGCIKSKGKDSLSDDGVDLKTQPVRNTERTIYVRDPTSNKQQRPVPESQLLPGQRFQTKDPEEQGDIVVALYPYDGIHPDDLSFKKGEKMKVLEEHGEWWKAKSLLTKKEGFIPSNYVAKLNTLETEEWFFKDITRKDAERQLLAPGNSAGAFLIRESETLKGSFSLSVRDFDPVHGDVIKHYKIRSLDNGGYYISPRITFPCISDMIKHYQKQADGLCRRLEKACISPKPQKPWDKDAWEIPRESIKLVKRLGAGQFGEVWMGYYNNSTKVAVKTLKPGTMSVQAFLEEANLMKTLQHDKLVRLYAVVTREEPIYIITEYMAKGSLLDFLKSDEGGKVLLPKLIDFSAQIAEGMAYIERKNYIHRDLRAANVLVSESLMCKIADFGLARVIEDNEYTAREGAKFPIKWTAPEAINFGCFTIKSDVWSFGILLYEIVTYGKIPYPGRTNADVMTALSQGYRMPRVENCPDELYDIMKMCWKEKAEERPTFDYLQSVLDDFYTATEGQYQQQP
Chain of PRKG1 (human) (Q13976 whole entry, looked up): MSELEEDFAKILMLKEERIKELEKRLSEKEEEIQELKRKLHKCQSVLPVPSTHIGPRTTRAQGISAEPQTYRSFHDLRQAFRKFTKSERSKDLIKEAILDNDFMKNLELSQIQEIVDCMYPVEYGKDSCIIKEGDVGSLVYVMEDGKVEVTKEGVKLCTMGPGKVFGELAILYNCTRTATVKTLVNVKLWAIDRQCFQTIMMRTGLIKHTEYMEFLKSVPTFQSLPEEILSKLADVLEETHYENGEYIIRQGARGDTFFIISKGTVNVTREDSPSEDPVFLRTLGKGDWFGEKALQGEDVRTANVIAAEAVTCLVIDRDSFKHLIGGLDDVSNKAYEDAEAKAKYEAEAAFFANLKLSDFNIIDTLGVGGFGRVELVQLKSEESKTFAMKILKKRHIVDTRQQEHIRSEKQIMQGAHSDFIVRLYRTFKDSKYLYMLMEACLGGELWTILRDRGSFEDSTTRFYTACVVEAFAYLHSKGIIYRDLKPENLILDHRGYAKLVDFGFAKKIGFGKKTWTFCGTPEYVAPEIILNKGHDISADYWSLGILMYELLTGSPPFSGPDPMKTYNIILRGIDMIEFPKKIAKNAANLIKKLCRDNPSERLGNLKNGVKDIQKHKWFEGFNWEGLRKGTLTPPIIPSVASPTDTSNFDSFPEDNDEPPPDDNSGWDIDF
Chain of PHKG2 (human) (P15735 whole entry, looked up): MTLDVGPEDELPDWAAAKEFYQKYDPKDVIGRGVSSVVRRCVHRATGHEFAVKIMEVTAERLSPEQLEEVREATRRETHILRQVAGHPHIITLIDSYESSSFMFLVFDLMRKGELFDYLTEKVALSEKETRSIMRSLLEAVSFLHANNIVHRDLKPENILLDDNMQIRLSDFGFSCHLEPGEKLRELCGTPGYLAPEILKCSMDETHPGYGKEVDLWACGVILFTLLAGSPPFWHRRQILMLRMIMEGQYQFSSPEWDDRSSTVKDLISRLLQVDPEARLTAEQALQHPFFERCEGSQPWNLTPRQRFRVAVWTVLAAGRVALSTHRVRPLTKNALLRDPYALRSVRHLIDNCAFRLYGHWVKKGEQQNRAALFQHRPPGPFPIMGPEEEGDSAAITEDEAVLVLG
Chain of PLK1 (human) (P53350 whole entry, looked up): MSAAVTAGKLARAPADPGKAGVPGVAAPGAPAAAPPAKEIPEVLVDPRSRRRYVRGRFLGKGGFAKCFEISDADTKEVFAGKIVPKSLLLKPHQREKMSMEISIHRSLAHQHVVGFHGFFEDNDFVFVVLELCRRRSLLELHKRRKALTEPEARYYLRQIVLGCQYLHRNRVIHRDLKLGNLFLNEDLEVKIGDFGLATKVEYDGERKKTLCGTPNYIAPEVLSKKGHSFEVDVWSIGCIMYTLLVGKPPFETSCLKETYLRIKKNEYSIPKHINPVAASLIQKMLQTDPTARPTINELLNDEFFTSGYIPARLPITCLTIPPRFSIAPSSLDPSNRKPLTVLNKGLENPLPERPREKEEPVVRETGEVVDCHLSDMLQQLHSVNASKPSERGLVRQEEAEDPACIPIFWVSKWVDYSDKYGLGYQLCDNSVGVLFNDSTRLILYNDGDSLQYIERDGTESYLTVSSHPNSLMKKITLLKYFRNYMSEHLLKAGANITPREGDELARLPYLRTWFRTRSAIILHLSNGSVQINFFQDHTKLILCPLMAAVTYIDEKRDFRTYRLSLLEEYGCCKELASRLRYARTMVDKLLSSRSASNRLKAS
Chain of STK4 (human) (Q13043 whole entry, looked up): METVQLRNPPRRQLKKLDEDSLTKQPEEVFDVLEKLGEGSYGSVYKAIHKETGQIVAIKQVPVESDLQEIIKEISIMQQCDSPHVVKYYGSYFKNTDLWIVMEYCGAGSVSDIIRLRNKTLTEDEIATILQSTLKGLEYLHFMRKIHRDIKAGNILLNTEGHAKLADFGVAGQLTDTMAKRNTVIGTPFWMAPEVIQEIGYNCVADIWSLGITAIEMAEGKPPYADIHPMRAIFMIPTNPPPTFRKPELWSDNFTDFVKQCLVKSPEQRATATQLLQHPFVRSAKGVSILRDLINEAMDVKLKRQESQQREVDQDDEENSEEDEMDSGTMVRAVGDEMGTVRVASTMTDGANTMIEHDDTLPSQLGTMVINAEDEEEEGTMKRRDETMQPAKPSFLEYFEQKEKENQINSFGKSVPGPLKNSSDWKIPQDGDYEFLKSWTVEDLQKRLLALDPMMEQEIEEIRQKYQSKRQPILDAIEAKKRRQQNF
Chain of MYLK (human) (Q15746 whole entry, looked up): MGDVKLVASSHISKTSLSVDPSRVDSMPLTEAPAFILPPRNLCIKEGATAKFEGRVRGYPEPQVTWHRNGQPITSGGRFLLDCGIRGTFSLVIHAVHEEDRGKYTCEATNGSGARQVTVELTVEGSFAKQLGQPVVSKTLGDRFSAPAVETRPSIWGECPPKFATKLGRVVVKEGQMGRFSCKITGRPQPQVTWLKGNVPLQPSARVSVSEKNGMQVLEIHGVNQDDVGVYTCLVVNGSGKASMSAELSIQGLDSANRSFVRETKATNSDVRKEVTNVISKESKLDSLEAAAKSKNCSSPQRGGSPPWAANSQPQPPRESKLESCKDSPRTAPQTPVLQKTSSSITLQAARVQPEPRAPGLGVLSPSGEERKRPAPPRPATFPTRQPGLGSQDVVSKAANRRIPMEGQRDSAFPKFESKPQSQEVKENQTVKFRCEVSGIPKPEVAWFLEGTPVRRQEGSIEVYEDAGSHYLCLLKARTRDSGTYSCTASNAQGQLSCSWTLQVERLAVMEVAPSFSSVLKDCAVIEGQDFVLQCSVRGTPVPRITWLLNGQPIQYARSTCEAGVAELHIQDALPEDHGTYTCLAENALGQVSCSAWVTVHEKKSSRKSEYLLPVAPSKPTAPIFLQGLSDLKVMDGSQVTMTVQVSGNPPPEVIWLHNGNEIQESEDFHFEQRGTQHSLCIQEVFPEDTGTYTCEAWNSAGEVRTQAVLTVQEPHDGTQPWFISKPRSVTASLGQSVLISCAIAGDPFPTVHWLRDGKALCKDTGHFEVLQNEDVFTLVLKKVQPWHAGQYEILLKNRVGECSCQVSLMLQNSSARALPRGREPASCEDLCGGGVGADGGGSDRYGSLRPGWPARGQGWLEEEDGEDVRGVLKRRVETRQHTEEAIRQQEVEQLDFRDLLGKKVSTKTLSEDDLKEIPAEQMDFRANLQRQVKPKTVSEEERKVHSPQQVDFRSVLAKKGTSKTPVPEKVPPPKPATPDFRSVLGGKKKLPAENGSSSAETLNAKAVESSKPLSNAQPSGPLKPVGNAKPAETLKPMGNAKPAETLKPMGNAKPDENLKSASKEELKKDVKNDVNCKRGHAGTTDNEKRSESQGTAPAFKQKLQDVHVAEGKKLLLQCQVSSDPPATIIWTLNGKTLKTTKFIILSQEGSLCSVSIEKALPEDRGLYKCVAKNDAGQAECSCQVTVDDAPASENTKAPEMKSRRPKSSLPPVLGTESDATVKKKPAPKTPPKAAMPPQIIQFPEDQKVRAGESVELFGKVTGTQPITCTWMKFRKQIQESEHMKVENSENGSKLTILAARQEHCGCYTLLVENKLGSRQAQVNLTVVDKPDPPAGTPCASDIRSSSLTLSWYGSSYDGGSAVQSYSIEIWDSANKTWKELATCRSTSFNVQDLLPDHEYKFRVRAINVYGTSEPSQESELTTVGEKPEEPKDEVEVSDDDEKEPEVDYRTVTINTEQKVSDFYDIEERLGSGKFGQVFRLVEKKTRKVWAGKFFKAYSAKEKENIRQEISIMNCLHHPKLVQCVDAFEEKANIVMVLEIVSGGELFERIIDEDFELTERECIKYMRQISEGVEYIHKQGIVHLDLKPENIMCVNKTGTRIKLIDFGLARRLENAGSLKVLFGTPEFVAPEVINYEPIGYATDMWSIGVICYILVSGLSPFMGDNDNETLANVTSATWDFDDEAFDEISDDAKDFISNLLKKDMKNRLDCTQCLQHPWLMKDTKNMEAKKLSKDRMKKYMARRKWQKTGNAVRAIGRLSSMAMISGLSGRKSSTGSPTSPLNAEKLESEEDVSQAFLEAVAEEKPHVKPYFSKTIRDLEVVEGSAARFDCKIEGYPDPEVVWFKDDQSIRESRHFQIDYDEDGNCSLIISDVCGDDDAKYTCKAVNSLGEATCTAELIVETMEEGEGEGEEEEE
Chain of NEK7 (human) (Q8TDX7 whole entry, looked up): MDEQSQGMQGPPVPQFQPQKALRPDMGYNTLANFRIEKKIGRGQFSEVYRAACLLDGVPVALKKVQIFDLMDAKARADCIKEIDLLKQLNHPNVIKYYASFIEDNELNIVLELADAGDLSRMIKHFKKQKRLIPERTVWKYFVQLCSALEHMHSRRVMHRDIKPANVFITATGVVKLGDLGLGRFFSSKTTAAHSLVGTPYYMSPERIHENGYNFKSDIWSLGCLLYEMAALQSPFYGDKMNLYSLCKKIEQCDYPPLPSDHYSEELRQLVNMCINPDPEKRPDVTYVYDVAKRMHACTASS

Compound: COc1cc2ncc(-c3ccccc3)nc2cc1OC
- residual activity [1]: 84.4%
- residual activity [2]: 95.6%
- residual activity [3]: 103%
- residual activity [4]: 109%
- residual activity [5]: 95.5%
- residual activity [6]: 102%
- residual activity [7]: 110%
- residual activity [8]: 94.5%
- residual activity [9]: 95.8%
- residual activity [10]: 102%
- residual activity [11]: 105%
- residual activity [12]: 90.3%
- residual activity [13]: 100%
- residual activity [14]: 78.7%
- residual activity [15]: 85%
- residual activity [16]: 99.7%
- residual activity [17]: 95.8%
- residual activity [18]: 97.4%
- residual activity [19]: 88.2%
- residual activity [20]: 96.9%
- residual activity [21]: 104%
- residual activity [22]: 112%
- residual activity [23]: 94.4%
- residual activity [24]: 94.1%
- residual activity [25]: 101%
- residual activity [26]: 93.3%
- residual activity [27]: 77.1% and 96.2%
- residual activity [28]: 106%
- residual activity [29]: 90.4% and 96.9%
- residual activity [30]: 93.4%
- residual activity [31]: 91.1%
- residual activity [32]: 96.3%
- residual activity [33]: 90.6%
- residual activity [34]: 90.1%
- residual activity [35]: 98.5%
- residual activity [36]: 97.1%
- residual activity [37]: 90.3%
- residual activity [38]: 104%
- residual activity [39]: 89.6%
- residual activity [40]: 95.9%
- residual activity [41]: 87.2%

Compound: CN([C@@H](Cc1ccc(OS(=O)(=O)c2cccc3cnccc23)cc1)C(=O)N1CCN(c2ccccc2)CC1)S(=O)(=O)c1cccc2cnccc12
- residual activity [1]: 99.4%
- residual activity [2]: 100%
- residual activity [3]: 105%
- residual activity [4]: 109%
- residual activity [5]: 104%
- residual activity [6]: 89.4%
- residual activity [7]: 101%
- residual activity [42]: 100%
- residual activity [9]: 102%
- residual activity [10]: 93.3%
- residual activity [11]: 105%
- residual activity [12]: 98%
- residual activity [13]: 96.5%
- residual activity [14]: 109%
- residual activity [15]: 86.5%
- residual activity [16]: 117%
- residual activity [17]: 103%
- residual activity [18]: 98.2%
- residual activity [19]: 95.1%
- residual activity [20]: 96.9%
- residual activity [21]: 96.6%
- residual activity [22]: 103%
- residual activity [23]: 96.6%
- residual activity [24]: 100%
- residual activity [25]: 109%
- residual activity [26]: 103%
- residual activity [27]: 84.2% and 93.6%
- residual activity [28]: 96.9%
- residual activity [29]: 101% and 92.1%
- residual activity [30]: 94.3%
- residual activity [31]: 99.2%
- residual activity [32]: 96.8%
- residual activity [33]: 92.1%
- residual activity [34]: 98.2%
- residual activity [35]: 96.7%
- residual activity [36]: 101%
- residual activity [37]: 89.4%
- residual activity [38]: 98.7%
- residual activity [39]: 96.3%
- residual activity [40]: 97.7%
- residual activity [41]: 101%
